Where two headings read alike, the source gives them in different places. Blank lines part the entries; values can stand above or below the molecule they belong to. Where no end group is shown, it is not given here.
Experiments:
[1] = molecular target: T1, human CRF binding protein (hCRF-BP) (Homo sapiens, UniProt P24387); experiment: competitive hCRF-BP ligand binding assay; settings: radioligand 125I[Nle21,Tyr32]-oCRF
T1 construct: made in house; host or cells: recombinant CHO cells, conditioned medium
T1 sequence (P24387 25-322): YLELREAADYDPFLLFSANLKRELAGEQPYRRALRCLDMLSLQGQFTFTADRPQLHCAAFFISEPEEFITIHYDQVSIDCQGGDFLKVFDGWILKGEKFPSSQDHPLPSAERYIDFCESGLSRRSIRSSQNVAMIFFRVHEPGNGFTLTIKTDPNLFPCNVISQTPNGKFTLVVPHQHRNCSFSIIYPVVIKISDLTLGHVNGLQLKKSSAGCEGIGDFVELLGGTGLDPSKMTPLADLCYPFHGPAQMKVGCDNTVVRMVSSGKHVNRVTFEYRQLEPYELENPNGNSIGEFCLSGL

murine CRF-R2β = molecular target: T2, murine CRF-R2β (Mus musculus, UniProt Q60748); experiment: elevation of intracellular cAMP in cells expressing mCRF-R2β; type: cell-based; settings: read-out: ED50, elevation of cAMP
T2 construct: expressed in transfected cells
T2 sequence (Q60748 1-431 isoform Q60748-2): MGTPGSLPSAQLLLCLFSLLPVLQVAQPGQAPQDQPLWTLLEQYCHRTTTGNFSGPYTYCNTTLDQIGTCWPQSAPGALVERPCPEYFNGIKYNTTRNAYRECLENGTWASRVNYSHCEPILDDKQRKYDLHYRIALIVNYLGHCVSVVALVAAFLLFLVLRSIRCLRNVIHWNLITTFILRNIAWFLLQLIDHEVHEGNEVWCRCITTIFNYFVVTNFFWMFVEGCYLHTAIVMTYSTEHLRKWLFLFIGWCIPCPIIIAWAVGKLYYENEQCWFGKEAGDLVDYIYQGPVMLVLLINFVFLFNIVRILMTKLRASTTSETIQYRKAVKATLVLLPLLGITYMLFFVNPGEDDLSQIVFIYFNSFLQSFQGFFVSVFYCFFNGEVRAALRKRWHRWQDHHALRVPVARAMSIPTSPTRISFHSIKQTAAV
Excerpt: CRF-R is used to refer to a family of receptor protein subtypes which participate in the G-protein-coupled response of cells to CRF and Ucn-like ligands. CRF-Rs are coupled by heterotrimeric G-proteins to various intracellular enzymes, ion channels, and transporters. The G-proteins associate with the receptor proteins at the intracellular face of the plasma membrane. An agonist binding to a CRF-R catalyzes the exchanges of GTP for GDP on the α-subunit (G-protein “activation”), resulting in its dissociation and stimulation of one (or more) of the various signal-transducing enzymes and channels. G-protein preferentially stimulates particular effectors, and the specificity of signal transduction may be determined, therefore, by the specificity of G-protein/receptor interaction. CRF-R proteins mediate signal transduction through the modulation of adenylate cyclase and perhaps through PI turnover. For example, when CRF or Ucn binds to and activates the CRF-R, adenylate cyclase causes an elevation in the level of intracellular cAMP. […] Such transformed cells are monitored for either an increase or decrease in the level of intracellular CAMP which provides a determination of the effectiveness of the potential agonist or antagonist. Methods for measuring intracellular levels of cAMP, or measuring cyclase activity, are well known in the art.

rats [2] = experiment: ACTH secretion in vivo, ACTH level in plasma
[3] = tested on: primary murine anterior pituitary cells; type: cell-based; settings: for EC50: read-out: EC50, secretion of ACTH
Excerpt: A straightforward assay using rat anterior pituitary cells in monolayer culture can be carried out to determine whether a candidate peptide thereof will function as a CRF agonist and stimulate ACTH secretion by activating CRF receptors on such cells. The procedure which is used is that generally set forth in Endocrinology, 91, supra. A very similar assay is used to test for antagonistic properties, using a challenge dose of oCRF or the like.
To test the ability of purified Ucn or another candidate Ucn-like peptide to function as a CRF agonist and to promote ACTH production and/or secretion, cultures of dispersed primary murine anterior pituitary cells (0.15×10^6 cells/well are used), as generally described in Vale et al. Meth. Enzym., 103, 565-577 (1983), and in Endocrinology, 91, 562 (1972). These cultures are maintained in 0.5 ml/well of β-PJ (a reagent available from Kansas City Biochemicals) containing 2% fetal bovine serum. On the morning of culture day 5, the cells are washed 3 times with β-PJ containing 0.1% bovine serum albumin and then incubated for 1 hour at 37° C. in the same medium. The medium is then replaced with Ucn, or an analog thereof, diluted in β-PJ containing 0.1% bovine serum albumin. Incubations are terminated after 3 hours, at which time the medium is removed and stored at −20° C. until ACTH radioimmunoassays are performed using a suitable kit, such as that commercially available from Diagnostic Products Corporation of Los Angeles, Calif. Secreted ACTH is measured using Allfit computer program with results expressed as the average±s.e.m. of 3 replicate bioassays.

human CRF-R2β = experiment: competitive displacement binding assay, CRF-R2β stably expressed in CHO cells; settings: read-out: Ki (95% confidence limits); CRF-R2β in stably transfected CHO cells; displacement of [125I-Tyr0]Ucn
Experimental: Binding assays with cells expressing human CRF-R1 are carried out as described in the Chen et al. P.N.A.S., supra. The affinities of test peptides for CRF-R1 and CRF-R2β stably expressed in CHO cells were determined by competitive displacement of ^125I-(Nle^21, Tyr^32) ovine CRF (for CRF-R1) or of [^125II-Tyr^∘]Ucn (for CRF-R2β) as described.

rats [4] = experiment: fall in mean arterial blood pressure after peripheral (iv) administration; type: in vivo
[5] = molecular target: CRF receptors on anterior pituitary cells in culture; experiment: cell-based or functional assay
[6] = molecular target: human CRF-R2β, stably transfected CHO cells (human) (UniProt Q13324); experiment: competitive displacement of [125I-Tyr0]Ucn from stably transfected CHO cells expressing human CRF-R2β; 95% confidence limits in brackets
[7] = molecular target: T3, human CRF binding protein (human, UniProt P24387 25-322); experiment: competitive hCRF-BP ligand binding assay with [125I-DTyr0]hCRF; reference peptide
T3 construct: also called hCRF-BP; CRF-BP
T3 sequence (looked up): T1 sequence (P24387 25-322)
Experimental: After incubating with the primary and secondary antisera for 30 minutes each, 1 ml of saline wash is added, and the test tubes are centrifuged at 2000× g for 20 minutes at 4° C. Precipitates are counted in a gamma counter. Inhibitory binding affinity constant (Kᵢ) values are determined using parameters calculated by the LIGAND computer program, Munson et al., Anal. Biochem., 107, 220 (1980), and a Vax/VMS computer system.

[8] = molecular target: T3, human CRF binding protein; experiment: competitive hCRF-BP ligand binding assay with 125I[Nle21,Tyr32]-oCRF
[9] = molecular target: T4, human CRF-R1 (cloned hCRF-R1), stably expressed in CHO cells (human, UniProt P34998 24-415); experiment: competitive displacement of 125I-(Nle21,Tyr32) ovine CRF from CHO cells stably expressing hCRF-R1; LIGAND program, 95% confidence limits in brackets
T4 construct: whole, on cells; also called hCRF-RA
T4 sequence (looked up): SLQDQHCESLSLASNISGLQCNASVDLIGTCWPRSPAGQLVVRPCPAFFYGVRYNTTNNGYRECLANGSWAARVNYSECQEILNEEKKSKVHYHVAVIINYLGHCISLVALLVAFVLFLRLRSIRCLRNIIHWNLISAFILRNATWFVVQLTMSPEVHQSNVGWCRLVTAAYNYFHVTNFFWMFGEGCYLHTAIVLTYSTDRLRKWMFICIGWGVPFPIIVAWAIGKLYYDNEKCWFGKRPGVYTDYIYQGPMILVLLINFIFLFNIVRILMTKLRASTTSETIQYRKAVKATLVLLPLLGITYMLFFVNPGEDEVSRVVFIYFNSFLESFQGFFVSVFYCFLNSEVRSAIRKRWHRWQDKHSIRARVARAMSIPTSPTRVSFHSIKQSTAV
Experimental: Binding assays with cells expressing human CRF-R1 are carried out as described in the Chen et al. P.N.A.S., supra.

[10] = molecular target: CRF receptors on anterior pituitary cells in culture; experiment: cell-based or functional assay; remark: listed apart in the source

Molecule: CC[C@H](C)[C@H](NC(=O)[C@@H](NC(=O)[C@H](CC(=O)O)NC(=O)[C@H](CC(C)C)NC(=O)[C@H](CC(C)C)NC(=O)[C@H](CC(C)C)NC(=O)[C@H](CCCNC(=N)N)NC(=O)[C@H](CC(N)=O)NC(=O)[C@H](CC(N)=O)NC(=O)[C@H](C)NC(=O)[C@H](C)NC(=O)[C@H](CCC(N)=O)NC(=O)[C@H](CCC(N)=O)NC(=O)[C@H](CCCCN)NC(=O)[C@H](CCC(=O)O)NC(=O)[C@H](CCCCN)NC(=O)[C@H](CCC(=O)O)NC(=O)[C@H](CCC(N)=O)NC(=O)[C@H](CCCCN)NC(=O)[C@H](CCC(=O)O)NC(=O)[C@@H](NC(=O)[C@H](CCC(=O)O)NC(=O)[C@@H](NC(=O)[C@H](CCSC)NC(=O)[C@H](CCCCN)NC(=O)[C@H](CCCNC(=N)N)NC(=O)[C@H](CC(C)C)NC(=O)[C@H](CC(C)C)NC(=O)[C@H](CCC(=O)O)NC(=O)[C@H](CC(C)C)NC(=O)[C@H](CO)NC(=O)[C@H](CC(C)C)NC(=O)[C@H](CC(=O)O)NC(=O)[C@@H](NC(=O)[C@H](CO)NC(=O)[C@@H](NC(=O)[C@@H]1CCCN1C(=O)[C@@H]1CCCN1C(=O)CNC(=O)[C@@H]1CCC(=O)N1)[C@@H](C)CC)[C@@H](C)CC)[C@@H](C)CC)[C@@H](C)CC)[C@@H](C)O)C(N)=O [sauvagine, reference compound]
EC50 ([3]; cultured rodent pituitary cells, incubation 3 hours, average±s.e.m.): ~0.033 nM
Ki (human CRF-R2β): 2 nM

Molecule: [Tyr0]rUcn(1-40) (peptide)
ACTH secretion, anterior pituitary cell cultures, potency relative to r/hCRF [5]: 2.2 times r/hCRF

B1: hCRF(9-33) (peptide)
peptide: DLTFHLLREVLEMARAEQLAQQAHS
binding result [7]: binds

B2: suckerfish urotensin I (peptide)
peptide: NDDPPISIDLTFHLLRNMIEMARIENEREQAGLNRKYLDEV-NH2
notes: also called sfUI; suckerfishUI
Ki [6]: 3 nM
binding result [8]: binds
Ki [9]: ~0.43 nM

B3: rat/human CRF (peptide)
peptide: SEEPPISLDLTFHLLREVLEMARAEQLAQQAHSNRKLMEII-NH2
notes: also called r/hCRF; rCRF
EC50, secretion of ACTH in cultured rodent pituitary cells [10]: 0.043 nM
binding result [8]: binds

The next lines start with results.

binds hCRF-BP more strongly than r/hCRF, factor [1]: about 2
EC50 (murine CRF-R2β): 0.18 ± 0.04 nM
Molecule: CC[C@H](C)[C@H](NC(=O)[C@H](CO)NC(=O)[C@H](CC(C)C)NC(=O)[C@@H]1CCCN1C(=O)[C@@H]1CCCN1C(=O)[C@H](CC(=O)O)NC(=O)[C@@H](N)CC(=O)O)C(=O)N[C@@H](CC(=O)O)C(=O)N[C@@H](CC(C)C)C(=O)N[C@H](C(=O)N[C@@H](Cc1ccccc1)C(=O)N[C@@H](Cc1c[nH]cn1)C(=O)N[C@@H](CC(C)C)C(=O)N[C@@H](CC(C)C)C(=O)N[C@@H](CCCNC(=N)N)C(=O)N[C@H](C(=O)N[C@@H](CC(C)C)C(=O)N[C@@H](CC(C)C)C(=O)N[C@@H](CCC(=O)O)C(=O)N[C@@H](CC(C)C)C(=O)N[C@@H](C)C(=O)N[C@@H](CCCNC(=N)N)C(=O)N[C@H](C(=O)N[C@@H](CCC(N)=O)C(=O)N[C@@H](CO)C(=O)N[C@@H](CCC(N)=O)C(=O)N[C@@H](CCCNC(=N)N)C(=O)N[C@@H](CCC(=O)O)C(=O)N[C@@H](CCCNC(=N)N)C(=O)N[C@@H](C)C(=O)N[C@@H](CCC(=O)O)C(=O)N[C@@H](CCC(N)=O)C(=O)N[C@@H](CC(N)=O)C(=O)N[C@@H](CCCNC(=N)N)C(=O)N[C@H](C(=O)N[C@H](C(=O)N[C@@H](Cc1ccccc1)C(=O)N[C@@H](CC(=O)O)C(=O)N[C@@H](CO)C(=O)N[C@H](C(N)=O)C(C)C)[C@@H](C)CC)[C@@H](C)CC)[C@@H](C)O)[C@@H](C)O)[C@@H](C)O [rUcn]
binding to hCRF-BP compared with sauvagine and sfUI [1]: much more strongly than does sauvagine, but less strongly than sfUI
ACTH level in plasma (rats [2]; 1 μg/kg dose, at 30 minutes): 659 ± 53 pg/mL
ACTH level in plasma, effect compared with r/hCRF (rats [2]; at 1 hour and at 2 hours): greater effect continues
biopotency for ACTH secretion compared with oCRF ([3]; cultured rodent pituitary cells): more potent than oCRF
stimulates the secretion of ACTH and β-END-LI (β-endorphin) ([3]; result in words): strongly stimulates
Ki (human CRF-R2β): 0.41 nM
fall in mean arterial blood pressure (rats [4]; administered peripherally, e.g. iv, dose as low as 250 ng for a rat of about 250 to 275 grams): marked fall
lowers blood pressure, times as much as either sfUI or r/hCRF (rats [4]; dose of about 3.77 μg/kg): 2-3 times

EC50 (murine CRF-R2β): 0.74 nM
EC50 ([3]; cultured rodent pituitary cells, no unit printed for this value): 0.017 ± 0.003 nM
Molecule: H-NDDPPISIDLTFHLLRNMIEMARIENEREQAGLNRKYLDEV-NH2 [sfUI, reference compound]
Ki (human CRF-R2β): 3 nM

Ki [6]: 0.41 nM
Molecule: rat urocortin (rat Ucn) (peptide)
